# Patent US20180284123A1, “BARCODED RAPID ASSAY PLATFORM USEFUL FOR EFFICIENT ANALYSIS OF CANDIDATE MOLECULES AND METHODS OF MAKING AND USING THE PLATFORM” (California Institute of Technology, priority 2017, published 2018)
# Numbered stars: 1 amine (or outer) side, 2 acyl side, 3 side chain; on linkers, the order of the positions; unused ones are H or OH. Bridge positions count the residues as written; N and C are the ends. Square brackets hold non-standard residues; d marks the D form. Triazole bridges read from a SMILES are 1,4-linked. Peptide text beside a SMILES is read from it. * marks the point of attachment. ξ: configuration not given here. Biotin = O=C1N[C@H]2[C@H](CS[C@H]2CCCCC(=O)*)N1; Lys(N3) = [N-]=[N+]=NCCCC[C@H](N)C(=O)O; ξLys(N3) = [N-]=[N+]=NCCCCC(N)C(=O)O; Ethylenediamine = C(CN[*:2])N[*:1]; PEG5 = NCCOCCOCCOCCOCCOCCC(=O)O; Pra = C#CC[C@H](N)C(=O)O
# Target: T1, KRAS (Homo sapiens, UniProt P01116)
# T1 construct: His6-tagged human KRas Isoform 4B (residues 1-169); His6; made in house; host or cells: E. coli BL21(DE3), PQE80 vector
# Test: GTPase Glo assay of intrinsic KRas GTPase activity
# Format: biochemical
# Description: The intrinsic GTPase activity of WT KRas protein was measured using the GTPase-Glo Assay Kit (#V7681) from Promega Corporation (Madison, Wis.) on opaque white 96-well plates (#6005290) from Perkin Elmer Life Sciences (Waltham, Mass.). Luminescence was recorded on the Flexstation 3 plate reader used for multi-well ELISAs.
# KRas inhibition assays were carried out using a GTPase Glo Assay kit from Promega. Each candidate inhibitor PCC was initially tested by combining a concentration series of the ligand with 10 μM KRas protein in an opaque white 96-well plate and incubated with 5 μM 5′-guanosine triphosphate (GTP) for two hours. The remaining GTP was […]. Chemiluminescence was measured using a Flexstation 3 plate reader (All wavelengths mode, 500 ms integration), and plotted using Graphpad Prism 7. […] All measurements were done in triplicate.
# The GTPase assays were run in triplicate on a multi-well plate using the GTPase Glo Assay kit from Promega with 10 μM KRas protein and varying concentrations of ligand (1 μM to 100 μM L1a, L8 and 2.5 μM to 250 μM L2). All reagents were warmed to RT before use. A single opaque white 96-well plate was charged with 12.5 μL GTPase/GAP buffer (GTPase buffer w/ 1 mM DTT), 10 μM KRas in GTPase/GAP buffer, or 10 μM KRas protein with either L1a, L2, or L8. Running the survey assays on the same plate allowed for direct comparison of the curves, but it necessitated the use of the first row/column on the multi-well plate which introduced some noise to the low ligand concentration points. A 12.5 μL aliquot of a 2×GTP solution (10 μM rGTP in GTPase Buffer) was then added to each well before allowing the plate to shake at RT for two hours (initial GTPase inhibition assay). The GTPase Glo reagent was reconstituted in the GTPase Glo Buffer (4 μL GTPase Glo (500×) reagent, 1996 μL GTPase Glo Buffer, 1 μL 10 mM ADP) immediately before adding 25 μL to each well. Shaking at RT for thirty minutes preceded the addition of 50 μL of the Detection reagent to each well. The plate was covered and incubated for a total of ten minutes before reading the luminescence with a Flexstation 3 plate reader (All wavelengths mode, 500 ms integration time), graphed using Graphpad Prism 7 (Sigmoidal 4PL mode), and an IC50 value was calculated.
# For the full GTPase inhibition curve for L2, the above procedure was followed with the change that the incubation with KRas occurred over or four hours rather than two.
# Consequently, the best three ligand fractions L1a, L2, and L8 were probed in a functional, solution phase assay for their ability to disrupt the intrinsic GTPase enzymatic activity of KRas protein. This assay measures the enzymatic conversion of GTP to GDP by KRas—a process that can potentially be inhibited. After incubation, an added GTPase Glo™ reagent converts the remaining GTP to ATP, and the ATP is converted into a chemiluminescent signal. Thus, higher chemiluminescence translates to lower KRas enzymatic activity. For the measurements, a fixed [KRas protein] is incubated with varying ligand concentrations. A concentration of 10 μM KRas protein was selected after generating a standard curve for the intrinsic KRas GTPase activity. KRas is a slow acting enzyme, so a KRas/PCC incubation time of two hours was used for the initial survey scans, while four hour incubation times were used for the higher resolution data. […] Thus, the modulation of KRas activity by L2 was recorded with an expanded concentration range.
# [1] = survey assays, 10 μM KRas, two hour incubation
# T1 sequence (P01116 1-169 isoform P01116-2): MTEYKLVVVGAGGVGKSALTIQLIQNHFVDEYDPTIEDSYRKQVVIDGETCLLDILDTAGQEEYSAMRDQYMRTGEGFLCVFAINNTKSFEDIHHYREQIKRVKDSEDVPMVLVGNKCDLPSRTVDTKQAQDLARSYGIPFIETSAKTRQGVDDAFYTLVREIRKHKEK
smiles,measurement,setting,value
"CC(C)[C@@H]1NC(=O)[C@@H]2CCCN2C(=O)[C@H](C(C)C)NC(=O)CNC(=O)[C@H](CCC(=O)O)NC(=O)[C@@H](N)Cc2cn(nn2)CCCCC(C(=O)NCCOCCOCCOCCOCCOCCC(=O)NCCNC(=O)CCCC[C@@H]2SC[C@@H]3NC(=O)N[C@@H]32)NC1=O (stereo partly drawn) [Ligand L2, EGVPV] (H-[Pra]EGVPV[ξLys(N3)][PEG5]-{Ethylenediamine-Biotin}; triazole 1-7)",concentration above which ligand switches from weakly activating to strongly inhibiting,"expanded concentration range, 10 μM KRas",above 20 μM
same,Hill coefficient of the titration curve,"full inhibition curve, four-hour incubation",~10
same,rGTP hydrolyzed,ligand-only (no KRas) wells,Less than 5%
same,effect on the KRas protein's GTPase activity,[1],inhibitory effect
same,relative potency as inhibitor of KRas GTPase activity,[1],most potent
"C[C@@H](O)[C@@H]1NC(=O)[C@@H](N)Cc2cn(nn2)CCCC[C@@H](C(=O)NCCOCCOCCOCCOCCOCCC(=O)NCCNC(=O)CCCC[C@@H]2SC[C@@H]3NC(=O)N[C@@H]32)NC(=O)[C@H](Cc2ccc(O)cc2)NC(=O)[C@H](Cc2ccccc2)NC(=O)[C@H](CC(N)=O)NC(=O)[C@H](CC(=O)O)NC1=O [Ligand L8, TDNFY] (H-[Pra]TDNFY[Lys(N3)][PEG5]-{Ethylenediamine-Biotin}; triazole 1-7)",effect on the KRas protein's GTPase activity,[1],inhibitory effect
